Results on seven molecules are retold here after EP0051773A1, “Penicillins, their salts, process for their preparation and pharmaceutical compositions containing them” (Dr. Karl Thomae GmbH, priority 1980, dated 1982).

Structures are written as SMILES. ≈ marks a conversion by molar mass, not a printed value.

Assay in all cases: serial dilution test in microtiter system (bacteriostasis, MIC)
Format in all cases: cell-based

Assay [1] relates to Escherichia coli ATCC 11 775. The conditions noted are these: ATCC11, liquid medium, 18 to 20 h at 37°C, read-out: MHK-Werte E.coli ATCC 11 755. How it is done:
(§1) Für die Untersuchungen wurde die Methode des Reihenverdünnungstestes im Mikrotitersystem angewandt. Die Prüfung der Substanzen auf Bakteriostase erfolgte in flüssigem Medium. Es wurde die Bakteriostasewirkung bei folgenden Konzentrationen untersucht.
(§2) Es wurde ein Nährboden folgender Zusammensetzung benutzt: 10 g Pepton, 8 g Fleischextrakt-Oxoid, 3 g Natriumschlorid, 2 g sek. Natriumphosphat werden mit dest. Wasser auf 1000 ml aufgefüllt (pH 7,2-7,4). Lediglich bei der Testung gegen Streptokokken wurde 1% Glucose hinzugefügt. Das Alter der Primärkulturen betrug etwa 20 Stunden. Die Einstellung der Keimsuspension erfolgte am Photometer (nach "Eppendorf") (Reagenzglas-Durchmesser 14 mm, Filter 546 nm) anhand der Trübung einer Bariumsulfat-Vergleichssuspension, die durch eine Bariumsulfat-Aufschwemmung erzeugt wurde, welche durch die Zugabe von 3,0 ml 1%ige Bariumchloridlösung in 97 ml 1%ige Schwefelsäure entstand. Nach der Einstellung wurden Streptococcus Aronson im Verhältnis 1:15 und die übrigen Testkeime im Verhältnis 1:1500 mit einer Kochsalzlösung weiter verdünnt.
(§3) 16 mg der jeweiligen Substanz wurden in 10 ml-Meßkolben eingewogen und mit dem Lösungsmittel bis zur Marke aufgefüllt. Die weitere Verdünnungsreihe wurde mit destilliertem Wasser oder dem jeweiligen Lösungsmittel hergestellt.
(§4) Die Vertiefungen der Mikrotiterplatten wurden mit 0,2 ml Nährmedium, 0,01 ml der entsprechenden Substanzverdünnung und mit einem Tropfen Keimsuspension (0,01 ml) beschickt und 18 bis 20 Stunden bei 37°C bebrütet. Eine Lösungsmittelkontrolle wurde stets mitgeführt.
(§5) Die Ablesung wurde makroskopisch vorgenommen, wobei die jeweilige Grenkonzentration (= niedrigste noch bakteriostatisch wirksame Konzentration) ermittelt wurde.
(§6) Als Testorganismen wurden benützt: - Staphylococcus aureus SG 511, Escherichia coli ATCC 11 775, Pseudomonas aeruginosa Hamburgensis und Walter, Serratia marcescens ATCC 13 880, Klebsiella pneumoniae ATCC 10 031 und BC 6, Proteus mirabilis Hamburgensis, Proteus rettgeri BC 7 und Enterobacter cloacae ATCC 13 047.
(§7) In der folgenden Tabelle 2 sind die ermittelten minimalen Hemmkonzentrationen (MIC) für typische Vertreter der erfindungsgemäßen Verbindungen aufgeführt, wobei sich die Ziffern auf die Penicilline der Tabelle 1 Seite 18 beziehen.

For assay [2], the system named is Klebsiella pneumoniae ATCC 10 031. Conditions: ATCC10, liquid medium, 18 to 20 h at 37°C, read-out: MHK-Werte Kl. pneum. ATCC 10 031. How it is done:
as §1, §2, §3, §4, §5, §6, §7

Assay [3] relates to Serratia marcescens ATCC 13 880. Conditions: ATCC13, liquid medium, 18 to 20 h at 37°C, read-out: MHK-Werte Serr. marcesc. ATCC 13 880. How it is done: as §1, §2, §3, §4, §5, §6, §7
Assay [4] concerns Klebsiella pneumoniae BC 6. Conditions: BC6, liquid medium, 18 to 20 h at 37°C, read-out: MHK-Werte Kl. pneum. BC 6. On the procedure: as §1, §2, §3, §4, §5, §6, §7
The test system of assay [5] is Pseudomonas aeruginosa Hamburgensis. Conditions: liquid medium, 18 to 20 h at 37°C, read-out: MHK-Werte Pseud. aerug. Hbg. On the procedure: as §1, §2, §3, §4, §5, §6, §7
In assay [6] the test system is Enterobacter cloacae ATCC 13 047. Conditions: ATCC13, liquid medium, 18 to 20 h at 37°C, read-out: MHK-Werte Eb. cloacae 13 047. How it is done: as §1, §2, §3, §4, §5, §6, §7
Assay [7] relates to Proteus mirabilis Hamburgensis. Conditions: liquid medium, 18 to 20 h at 37°C, read-out: MHK-Werte Prot. mir. Hbg. How it is done:
as §1, §2, §3, §4, §5, §6, §7

The test system of assay [8] is Pseudomonas aeruginosa Walter. The conditions noted are these: liquid medium, 18 to 20 h at 37°C, read-out: MHK-Werte Pseud. aerug. Walter. On the procedure: as §1, §2, §3, §4, §5, §6, §7
In another assay the test system is Proteus rettgeri BC 7. The conditions noted are these: Providencia rettgeri, BC7; liquid medium, 18 to 20 h at 37°C; read-out: MHK-Werte Prot. rettg. BC 7. On the procedure: as §1, §2, §3, §4, §5, §6, §7
The test system of assay [9] is Staphylococcus aureus SG 511. Conditions: SG511, liquid medium, 18 to 20 h at 37°C, read-out: MHK-Werte Staph. aureus SG 511. On the procedure: as §1, §2, §3, §4, §5, §6, §7

For the molecule `CC1(C)S[C@@H]2[C@H](NC(=O)[C@H](NC(=O)Nc3cnccc3O)c3ccccc3)C(=O)N2[C@H]1C(=O)O` [C, D-α-[(4-Hydroxy-3-pyridyl)-ureido]-benzylpenicillin-Natrium, reference compound], the MIC in assay [1] was determined as 2 µg/mL (≈ 4.12 µM); in assay [2], 32 µg/mL (≈ 65.9 µM); in assay [3] it was 0.5 µg/mL (≈ 1.03 µM); in assay [4], 32 µg/mL (≈ 65.9 µM); in assay [5], 8 µg/mL (≈ 16.5 µM); in [6], 8 µg/mL (≈ 16.5 µM). The values for the MIC (in assay [7]; in [8]; in the assay on Proteus rettgeri BC 7) were 0.25 µg/mL (≈ 0.515 µM), 8 µg/mL (≈ 16.5 µM) and 1 µg/mL (≈ 2.06 µM), respectively.

Consider `CC1(C)S[C@@H]2[C@H](NC(=O)[C@H](NC(=O)Nc3cnc(Nc4ccc(S(N)(=O)=O)cc4)nc3O)c3cccs3)C(=O)N2[C@H]1C(=O)O` [Verbindung 2], for which the MIC in assay [1] is 0.5 µg/mL (≈ 0.754 µM); in [2], 2 µg/mL (≈ 3.02 µM); in assay [3], 0.25 µg/mL (≈ 0.377 µM); in assay [4], 1 µg/mL (≈ 1.51 µM); in [5] it was 4 µg/mL (≈ 6.04 µM); in assay [6] it was 2 µg/mL (≈ 3.02 µM). For the same molecule, the MIC is 0.06 µg/mL (≈ 0.0905 µM) in assay [7], 2 µg/mL (≈ 3.02 µM) in assay [8], 0.5 µg/mL (≈ 0.754 µM) with Proteus rettgeri BC 7 and 0.12 µg/mL (≈ 0.181 µM) in assay [9].

On to `CC1(C)S[C@@H]2[C@H](NC(=O)[C@H](NC(=O)Nc3cnc(Nc4cccc(S(N)(=O)=O)c4)nc3O)c3ccc(O)cc3)C(=O)N2[C@H]1C(=O)O` [Verbindung 5], for which the MIC amounted to 0.25 µg/mL (≈ 0.372 µM) in assay [1]; 2 µg/mL (≈ 2.97 µM) in assay [2]; 0.25 µg/mL (≈ 0.372 µM) in [3]; 2 µg/mL (≈ 2.97 µM) in assay [4]; 2 µg/mL (≈ 2.97 µM) in assay [5]; 1 µg/mL (≈ 1.49 µM) in assay [6]. In addition, the MIC in assay [7] was 0.06 µg/mL (≈ 0.0892 µM); in assay [8] it was 2 µg/mL (≈ 2.97 µM); in the assay on Proteus rettgeri BC 7, 0.25 µg/mL (≈ 0.372 µM); in assay [9], 0.5 µg/mL (≈ 0.743 µM).

On to `CNS(=O)(=O)c1ccc(Nc2ncc(NC(=O)N[C@@H](C(=O)N[C@@H]3C(=O)N4[C@@H]3SC(C)(C)[C@@H]4C(=O)O)c3ccccc3)c(O)n2)cc1` [Verbindung 8], for which the MIC amounted to 0.12 µg/mL (≈ 0.179 µM) in assay [1]; 0.5 µg/mL (≈ 0.745 µM) in [2]; 0.12 µg/mL (≈ 0.179 µM) in assay [3]; 1 µg/mL (≈ 1.49 µM) in assay [4]; 1 µg/mL (≈ 1.49 µM) in assay [5]; 0.5 µg/mL (≈ 0.745 µM) in assay [6]. Besides, the MIC was found to be 0.03 µg/mL (≈ 0.0447 µM) in assay [7], 2 µg/mL (≈ 2.98 µM) in [8], 0.5 µg/mL (≈ 0.745 µM) with Proteus rettgeri BC 7 and 0.12 µg/mL (≈ 0.179 µM) in assay [9].

Consider `CNS(=O)(=O)c1ccc(Nc2ncc(NC(=O)N[C@@H](C(=O)N[C@@H]3C(=O)N4[C@@H]3SC(C)(C)[C@@H]4C(=O)O)c3ccc(O)c(Cl)c3)c(O)n2)cc1` [Verbindung 13], for which the MIC is 0.25 µg/mL (≈ 0.347 µM) in assay [1]; 2 µg/mL (≈ 2.77 µM) in [2]; 0.25 µg/mL (≈ 0.347 µM) in assay [3]; 1 µg/mL (≈ 1.39 µM) in assay [4]; 2 µg/mL (≈ 2.77 µM) in assay [5]; 1 µg/mL (≈ 1.39 µM) in assay [6]. Moreover, the MIC in [7] came to 0.25 µg/mL (≈ 0.347 µM); in [8] it was 2 µg/mL (≈ 2.77 µM); in the assay on Proteus rettgeri BC 7, 0.5 µg/mL (≈ 0.693 µM); in assay [9], 0.25 µg/mL (≈ 0.347 µM).

Regarding `CN(C)S(=O)(=O)c1ccc(Nc2ncc(NC(=O)N[C@@H](C(=O)N[C@@H]3C(=O)N4[C@@H]3SC(C)(C)[C@@H]4C(=O)O)c3ccc(O)cc3)c(O)n2)cc1` [Verbindung 15], the MIC is 0.25 µg/mL (≈ 0.357 µM) in [1]; 1 µg/mL (≈ 1.43 µM) in assay [2]; 0.25 µg/mL (≈ 0.357 µM) in assay [3]; 1 µg/mL (≈ 1.43 µM) in assay [4]; 2 µg/mL (≈ 2.85 µM) in assay [5]; 2 µg/mL (≈ 2.85 µM) in assay [6]. Besides, the MIC in assay [7] stood at 0.12 µg/mL (≈ 0.171 µM); in [8], 2 µg/mL (≈ 2.85 µM); in the assay on Proteus rettgeri BC 7 it was 1 µg/mL (≈ 1.43 µM); in assay [9], 0.5 µg/mL (≈ 0.714 µM).

For the molecule `CC1(C)SC2C(NC(=O)C(NC(=O)Nc3cnc(Nc4ccc(S(C)(=O)=O)cc4)nc3O)c3ccc(O)c(Cl)c3)C(=O)N2C1C(=O)O` (stereo not drawn) [Verbindung 25], the MIC was found to be 0.25 µg/mL (≈ 0.354 µM) in assay [1]; 1 µg/mL (≈ 1.42 µM) in [2]; 0.25 µg/mL (≈ 0.354 µM) in assay [3]; 1 µg/mL (≈ 1.42 µM) in [4]; 2 µg/mL (≈ 2.83 µM) in [5]; 4 µg/mL (≈ 5.66 µM) in assay [6]. Moreover, the MIC stood at 0.12 µg/mL (≈ 0.17 µM) in [7], 2 µg/mL (≈ 2.83 µM) in assay [8], 0.5 µg/mL (≈ 0.708 µM) with Proteus rettgeri BC 7 and 0.25 µg/mL (≈ 0.354 µM) in assay [9].
